Literature values in patent US10307430B2, “KATP antagonists (glibenglamid) for use for promoting growth and/or treating hyperglycaemia of a premature infant” (ASSISTANCE PUBLIQUE—HOPITAUX DE PARIS, priority 2011, dated 2019).

Legend:
human fetal β cells = human fetal β cells from 14 to 20 week gestational fetus (Weinhaus et al., 2003)
[1] = intravenous, first week of life, very low birth weight infants (Beardsall et al., 2007)
[2] = preterm newborn infants, when used with caution (Mitanchez, 2007; Beardsall and Dunger, 2008)
[3] = early insulin replacement, intravenous (Beardsall et al., 2008)

COC(=O)C1=C(C)NC(C)=C([N+](=O)[O-])C1c1ccccc1C(F)(F)F (stereo not shown) [BAY K8644]
insulin secretion in response to secretagogue (human fetal β cells): able to secrete insulin

[Cl-].[K+] [KCl]
insulin secretion in response to secretagogue (human fetal β cells): able to secrete insulin

Cc1cnc(C(=O)NCCc2ccc(S(=O)(=O)NC(=O)NC3CCCCC3)cc2)cn1 [glipizide]
insulin secretion in response to secretagogue (human fetal β cells): able to secrete insulin

insulin
IGF-I levels [1]: increases IGF-I levels
blood glucose control [1]: improves blood glucose control
endogenous glucose production [2]: efficient to reduce endogenous glucose production
risk of hypoglycaemia [3]: increased risk of hypoglycaemia
weight loss in the first week of life [3]: reduced weight loss
glucose control (early insulin replacement, intravenous, 194 very-low-birth-weight infants (Beardsall et al., 2008)): improved glucose control
clinical benefit (early insulin therapy, infants with very low birth weight (Beardsall et al., 2008)): no clinical benefit
